Laboratory results reported in patent publication US5882851A, “Cytochrome P-450 monooxygenases” (Novartis Finance Corporation, priority 1993, dated 1999).
Converted amounts (≈) assume the structure as drawn. Like-named read-outs stand apart in the source and are kept apart here. Each block holds one molecule with its values, some of them ahead of it.

Columns and labels:
[1] = molecular target: T1, P-450TYR expressed in E. coli (Sorghum bicolor, UniProt Q43135); test: Substrate binding spectra of P-450TYR expressed in E. coli
T1 construct: in which the 35 N-terminal amino acids are replaced by the nine N-terminal amino acids from bovine 17α hydroxylase; nine N-terminal amino acids from bovine 17alpha-hydroxylase (replace the 35 N-terminal residues) (N); made in house; host or cells: E. coli JM109, vector pSP19g10L
Excerpt: (§1) Cytochrome P-450TYR in the oxidized state has a strong absorption peak at 420 nm, representing the low spin state of the iron of the heme group. The binding of a ligand to the heme group shifts the absorption maximum by changing the spin state of the iron. Binding of tyrosine at the catalytic site of cytochrome P-450TYR induces a change of the spin state of the oxidized iron from low to high spin, and thereby changes the absorption maximum from 420 nm to 390 nm producing a type I spectrum (Jefcoate, Methods in Enzymology 52:258-279, 1978). The following experimental procedure is used to obtain the substrate binding spectrum: two identical cuvettes containing a buffered solution of the isolated cytochrome P-450 are prepared. The substrate of the enzyme is added to the sample cuvette whereas the same volume of buffer is added to the other cuvette. The difference spectrum is then recorded in an SLM-Aminco DW2c spectrophotometer. The absorption difference, A390-420, is proportional to the concentration of cytochrome P-450TYR with a bound substrate at its active site. If a saturating concentration of substrate is added to the sample cuvette, the absorption difference is proportional to the concentration of the substrate specific cytochrome P-450 in the cuvettes. The saturating concentration of the substrate is determined by titrating the cytochrome P-450 sample with increasing amounts of substrate and monitoring A390-420.
A modified cytocrome P-450TYR, in which the 35 N-terminal amino acids are replaced by the nine N-terminal amino acids from bovine 17α hydroxylase is introduced into the expression vector pSP19g10L which can be obtained from Dr. Henry Barnes (La Jolla, Calif.). This plasmid contains the lac Z promoter fused with the known short leader sequence (g10L) of gene 10 from bacteriophage T7 (Olin et al, 1988). A construct containing the N-terminal amino acids from bovine 17α hydroxylase and a truncated form of the P-450TYR gene is designed using PCR mutagenesis: Oligonucleotide TYROL 1d (5'-CGGGATCCATATGGCTCTGTTATTAGCAGTTTTTCTGTCGTACCTGGCCCG-3'; SEQ ID NO 23) containing a 5' mutant cDNA sequence as well as a BamHI and NdeI restriction site is used together with oligonucleotide TYROL 3 comprising the sequence surrounding the unique BamHI restriction site downstream of the ATG start codon of the cDNA coding for P-450TYR to amplify a modified N-terminal sequence of P-450TYR. The amplification product is cut with NdeI and BamHI restriction enzymes. To introduce a HindIII site immediately downstream of the stop codon of the P-450TYR gene, oligonucleotides TYROL 2 and TYROL 4 are used in a polymerase chain reaction to obtain a C-terminal fragment of the P-450TYR gene comprising a HindIII restriction site immediately downstream of the stop codon. The amplification product is cut with PstI and HindIII restriction enzymes. The complete expression plasmid is constructed by simultaneous ligation of the N-terminal NdeI/BamHI fragment, the BamHI/PstI fragment of the P-450TYR gene and the C-terminal PstI/HindIII fragment into NdeI/HindIII cleaved pSP19g10L vector DNA. The expression vector obtained is transformed into E. coli strain JM109. Transformed E. coli produce 300 nmol to 500 nmol cytochrome P-450TYR per liter cell culture upon growth at 28° C. in the presence of 1 mM isopropyl-β-D-thiogalactopyranoside and at 125 rpm. Expression levels as high as 900 nmol per liter, equivalent to 55 mg P-450TYR per liter, have been obtained. […]

cytochrome P-450TYR = molecular target: T2, cytochrome P-450TYR (Sorghum bicolor, UniProt Q43135); test: Substrate binding spectra of isolated sorghum cytochrome P-450TYR (difference spectrum A390-420)
T2 construct: from tissue; host or cells: microsomes of etiolated Sorghum bicolor seedlings, solubilised and purified by dye columns
T2 sequence (Q43135 1-558): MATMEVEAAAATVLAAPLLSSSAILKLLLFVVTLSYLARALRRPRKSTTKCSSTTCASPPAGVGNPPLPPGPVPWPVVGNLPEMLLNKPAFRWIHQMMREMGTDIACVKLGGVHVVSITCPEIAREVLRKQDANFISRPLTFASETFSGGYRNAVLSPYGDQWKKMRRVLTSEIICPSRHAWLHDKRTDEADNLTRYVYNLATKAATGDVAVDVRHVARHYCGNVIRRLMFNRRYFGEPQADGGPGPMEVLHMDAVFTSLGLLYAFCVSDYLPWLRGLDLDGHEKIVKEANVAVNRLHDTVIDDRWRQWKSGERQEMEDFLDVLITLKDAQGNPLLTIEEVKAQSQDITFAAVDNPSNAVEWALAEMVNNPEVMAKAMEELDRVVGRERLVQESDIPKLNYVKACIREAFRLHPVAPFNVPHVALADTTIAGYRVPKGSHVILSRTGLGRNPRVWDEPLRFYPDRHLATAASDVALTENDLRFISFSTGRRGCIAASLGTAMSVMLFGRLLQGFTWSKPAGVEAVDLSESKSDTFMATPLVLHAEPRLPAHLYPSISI
Method: Cytochrome P-450 substrate binding spectra are recorded with stepwise increased substrate concentration until saturating conditions are reached.
as §1, with “Binding of tyrosine at the catalytic site of cytochrome P-450TYR induces a change of the spin state of the oxidized iron from low to high spin, and thereby changes the absorption maximum from 420 nm to 390 nm producing a type I spectrum (Jefcoate, Methods in Enzymology 52:258-279, 1978).” left out
If a cytochrome P-450 sample can be saturated with two different substrates, there may be two different cytochrome P-450 enzymes in the sample, or there may be one cytochrome P-450 enzyme able to bind to both substrates. To discriminate between these possibilities, saturating amounts of the two substrates are added sequentially and the A390-420absorption change is monitored. If, independent of the order of addition, the addition of the second sample gives rise to an increased A390-420value compared to the value after the addition of the first substrate, the two substrates are bound by different enzymes. If A390-420 remains unchanged upon addition of the second substrate, independent of the order of addition, both substrates bind to the same active site, i.e. to the same cytochrome P-450 enzyme.

[2] = system: Western Corn Root Worm (WCRW); test: Larval mortality of Western Corn Root Worm on diet; type: in vivo, Diabrotica virgifera virgifera
Excerpt: Insects or insect larvae are fed on a diet containing added cyanogenic glycoside, a diet containing added cyanogenic glycoside, and callus, or a diet supplemented with the supernatant of callus ground-up in the presence of the cyanogenic glycoside. Mortality is compared to the mortality of insects or insect larvae fed on the diet only.
WCRW larvae are fed on a diet with added amygdalin, a diet with added amygdalin and Black Mexican Sweet (BMS) callus or on a diet supplemented with the supernatant of BMS-callus ground-up in the presence of amygdalin. Larval mortality is compared to the mortality of larvae fed on the diet only.
The activity of dhurrin on larval mortality of WCRW was determined as described for amygdalin in example 12.

glucosinolate production = test: Induction of glucosinolate production in Tropaeolum majus; type: in vivo
Method: Seeds of Tropaeolum majus L. cv Empress of India (Dansk Havefroforsyning, Kolding, DK) are allowed to imbibe and germinate in complete darkness for one week at 25° C. In vivo biosynthesis experiments are performed wherein 1 μCi of the tracer ^14 C-labelled phenylalanine is administered to excised dark-grown seedlings for 24 hours followed by boiling of the plant material in 90% methanol and analysis of the extracts by HPLC as described by Lykkesfeldt and Moller, 1993. Prior to administration of the tracer to the excised seedling or leaf, the intact plant is subjected to a potential inducer for 24 hours.

[3] = system: biosynthesis of glucosinolates; test: In vivo effect of cytochrome P450 inhibitors on glucosinolate in etiolated tropaeolum seedlings; details: 1 mM inhibitor; for effect on glucosinolate: radioactively labelled phenylalanine, etiolated tropaeolum seedlings
[4] = system: N[C@@H](Cc1ccc(O)cc1)C(=O)O; test: Reconstitution of cytochrome P-450TYR activity in DLPC micelles; type: biochemical, Sorghum bicolor; details: pH 7.9, 30.0 °C
Excerpt: Reconstitution of the enzyme activity of a microsomal P-450 enzyme is accomplished by insertion of the cytochrome P-450 enzyme and the corresponding NADPH-cytochrome P-450 oxidoreductase into appropriate lipid micelles made from different commercially available lipids. Isolation of NADPH-cytochrome P-450 oxidoreductase is done according to Halkier and Moller, Plant Physiol. 96:10-17, 1990. A mixture of lipids can be used but with cytochrome P-450TYR di-lauroyl-phosphatidyl choline (DLPC) provides the best enzymatic activity. One rate limiting factor of this rate limiting reaction is the number of correctly formed complexes of cytochrome P-450TYR and NADPH-cytochrome P-450 oxidoreductase. Excess amounts of the oxidoreductase and concentrated enzyme solutions ensure a sufficient number of active complexes.
A reconstituted enzyme is obtained using the following components:
Cytochrome P-450TYR : 100 μg/ml in 50 mM potassium phosphate buffer pH 7,9
Oxidoreductase, purified from Sorghum bicolor: 100 μg/ml in 50 mM potassium phosphate buffer pH 7,9
Lipid: 10 mg/ml di-lauroyl-phosphatidyl choline, sonicated in 50 mM potassium phosphate buffer pH 7,9
^14 C-tyrosine: commercially available from Amersham; [U-^14 C]-L-tyrosine 0.5 μCi
10 μl of the lipid suspension is mixed in a glass vial with 50 μl of the cytochrome P-450TYR (0-1.5 pmol) solution. 50 μl of the oxidoreductase (0-0.15 U) solution is added and then 10 μl tyrosine solution and 10 μl NADPH solution are added and the mixture is sonicated in a Branson 5200 sonication bath for one minute. The reaction mixture is subsequently incubated for 1 hour at 30° C. At the end of the incubation period the reaction is stopped by transferring the glass vials onto ice. Radioactively labelled intermediates formed are extracted into 50 μl ehtyl acetate, applied to a silica coated TLC plate and developed using an ethyl acetate/toluene (1:5 v/v) mixture as mobile phase. The resultant product, p-hydroxyphenylacetaldehyde oxime is visualized by autoradiography of the TLC plate. Alternatively, the intermediates are analyzed by reverse-phase HPLC coupled to a Berthold radioactiviy monitor. The HPLC separation was carried out using a nucleosil 100-10C18 column isocratically eluted with 1,5% 2-propanol in 25 mM Hepes pH 7,9 (Halkier et al, J. Biol. Chem. 264:19487-19494, 1989). Control samples may be made by omitting either cytochrome P-450 oxidoreductase or NADPH.

T1 sequence (Q43135 other isoform, or with tags, fused parts or gaps): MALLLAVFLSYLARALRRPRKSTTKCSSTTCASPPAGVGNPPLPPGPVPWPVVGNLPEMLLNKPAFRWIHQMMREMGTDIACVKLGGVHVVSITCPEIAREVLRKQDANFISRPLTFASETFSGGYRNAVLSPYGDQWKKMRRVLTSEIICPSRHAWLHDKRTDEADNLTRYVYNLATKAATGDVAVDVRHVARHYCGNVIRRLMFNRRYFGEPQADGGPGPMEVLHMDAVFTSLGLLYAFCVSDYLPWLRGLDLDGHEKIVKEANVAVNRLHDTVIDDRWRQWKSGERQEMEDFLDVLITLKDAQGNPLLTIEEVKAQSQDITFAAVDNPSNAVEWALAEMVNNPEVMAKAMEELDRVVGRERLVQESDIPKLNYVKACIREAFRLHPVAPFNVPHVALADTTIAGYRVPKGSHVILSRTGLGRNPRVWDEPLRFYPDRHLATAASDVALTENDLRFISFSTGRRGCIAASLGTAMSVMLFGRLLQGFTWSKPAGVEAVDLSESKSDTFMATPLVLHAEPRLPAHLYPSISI

molar extinction coefficient E420-390 [1]: 64.6 cm⁻¹ mM⁻¹
initial A390-420 (cytochrome P-450TYR; 50 μl 20 mM N-hydroxytyrosine): 0,0689
resulting A390-420 (cytochrome P-450TYR; 50 μl 20 mM N-hydroxytyrosine, dilution factor 550/500): 0,0758
initial A390-420 (cytochrome P-450TYR; 120 μl 5 mM N-hydroxytyrosine): 0,0919
resulting A390-420 (cytochrome P-450TYR; 120 μl 5 mM N-hydroxytyrosine, dilution factor 620/500): 0,1140
initial A390-420 (cytochrome P-450TYR; 140 μl 5 mM N-hydroxytyrosine): 0,0911
resulting A390-420 (cytochrome P-450TYR; 140 μl 5 mM N-hydroxytyrosine, dilution factor 640/500): 0,1166
type of substrate binding spectrum (cytochrome P-450TYR; isolated sorghum P-450TYR): type I binding spectrum
Molecule: O=C(O)[C@H](Cc1ccc(O)cc1)NO [N-hydroxytyrosine]

Molecule: N#C[C@H](O[C@@H]1O[C@H](CO[C@@H]2O[C@H](CO)[C@@H](O)[C@H](O)[C@H]2O)[C@@H](O)[C@H](O)[C@H]1O)c1ccccc1 [amygdalin]
lethality ([2]; WCRW larvae, 2 mg/ml, in the absence of BMS-callus): lethal
lethality ([2]; WCRW larvae, concentrations of less than 1 mg/ml, BMS-callus absent): significantly less lethality
LC50 ([2]; WCRW larvae, in the presence of BMS-callus, read-out: LC50): ~1000 µg/mL

Molecule: N#C[C@@H](O[C@@H]1O[C@H](CO)[C@@H](O)[C@H](O)[C@H]1O)c1ccc(O)cc1 [dhurrin]
LC50 [2]: 368 µg/mL (≈ 1180 µM)
95% confidence limits of LC50 ([2]; WCRW larvae): 0.28 to 0.48 µg/mL
slope of the regression line ([2]; WCRW larvae): 2.5

Molecule: CCO [ethanol]
increase in glucosinolate production as compared to control experiments with water (glucosinolate production; 10 mM phenylalanine or 2% ethanol administered to the vermiculate, 24 hours, etiolated seedlings): threefold increase

Molecule: CC/C=C\C[C@H]1C(=O)CC[C@@H]1CC(=O)O [jasmonic acid]
induction of glucosinolate production (glucosinolate production; spraying with 100 μM, incubation 24 hours, etiolated seedlings and green leaves): fivefold induction

type of substrate binding spectrum [1]: type Ispectrum
Molecule: ON=CCc1ccc(O)cc1 [p-hydroxyphenylacetaldehyde oxime]

Molecule: N#CCc1ccc(O)cc1 [p-hydroxyphenylacetonitrile]
type of substrate binding spectrum [1]: type Ispectrum

Molecule: Clc1ccc(N2N=NC3C4CC(C5N=NC45)C32)cc1 (centres unmarked) [tetcyclacis]
effect on glucosinolate [3]: reduction of glucosinolate

Molecule: cytochrome P-450TYR (Sorghum bicolor)
Km ([4]; other: in the absence of added salt): 210 µM
Km ([4]; other: in the presence of 15 mM NaCl): 140 µM

Molecule: enilketoconazol
effect on uptake of phenylalanine ([3]; measured by ethanol extraction of the plant material): without causing a reduction in the uptake of phenylalanine
effect on glucosinolate [3]: reduction of glucosinolate
